Data reported in patent publication US20250066360A1, “PYRIDINE-CONTAINING POLYCYCLIC DERIVATIVE, AND PREPARATION METHOD THEREFOR AND USE THEREOF” (SHANGHAI HANSOH BIOMEDICAL CO., LTD., priority 2022, published 2025).

Assays:
p38α/MK2 = molecular target: T1, p38α/MK2 (Homo sapiens, UniProt P49137+Q16539); assay: Inhibition of p38α/MK2 enzyme activity (TR-FRET, ULight-CREBtide); type: biochemical; conditions: for IC50: 0.06 nM p38a, 1.2 nM MK2, 25 μM ATP, read-out: p38/MK2 IC50; for Selectivity ratio (p38 IC50 / p38/MK2 IC50): selectivity ratio p38 IC50 over p38/MK2 IC50
T1 construct: purchased R & D systems (p38 alpha); Thermo (MK2) 5477-KS-010; PV3316
T1 sequence (Q16539 whole entry): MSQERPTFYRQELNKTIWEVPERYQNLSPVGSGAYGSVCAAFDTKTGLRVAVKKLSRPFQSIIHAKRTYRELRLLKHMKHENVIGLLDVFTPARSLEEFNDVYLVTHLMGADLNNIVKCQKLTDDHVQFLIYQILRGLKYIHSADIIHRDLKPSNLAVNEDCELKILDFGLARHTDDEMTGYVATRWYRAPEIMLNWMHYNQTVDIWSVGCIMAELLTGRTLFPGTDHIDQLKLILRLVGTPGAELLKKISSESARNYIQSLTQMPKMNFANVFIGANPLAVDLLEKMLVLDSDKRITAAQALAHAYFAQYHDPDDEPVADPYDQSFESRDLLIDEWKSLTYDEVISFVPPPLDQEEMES
T1 sequence (P49137 whole entry): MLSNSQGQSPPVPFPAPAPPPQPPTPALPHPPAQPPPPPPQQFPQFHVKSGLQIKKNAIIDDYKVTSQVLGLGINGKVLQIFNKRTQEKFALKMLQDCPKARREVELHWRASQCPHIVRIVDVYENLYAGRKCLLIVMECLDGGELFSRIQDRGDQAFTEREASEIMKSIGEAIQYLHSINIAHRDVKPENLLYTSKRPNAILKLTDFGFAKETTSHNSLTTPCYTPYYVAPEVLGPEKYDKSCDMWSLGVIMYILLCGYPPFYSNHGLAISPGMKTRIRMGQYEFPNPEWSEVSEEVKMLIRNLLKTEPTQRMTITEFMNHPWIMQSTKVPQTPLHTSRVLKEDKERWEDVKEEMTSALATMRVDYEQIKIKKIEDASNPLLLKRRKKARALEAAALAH
Procedure: (§1) 50 nM ULight-CREBtide and 25 μM ATP (ATP Solution) were added, and the mixture was reacted at room temperature for 1.5 hours. An equal volume of a detection and termination mixed solution (1×LANCE detection buffer containing 20 mM EDTA and 2 nM Europium-anti-phospho-CREB) was added, the mixture was mixed until uniform and centrifuged, a plate sealing film was attached, and a reaction was performed at room temperature for 1 hour. TR-FRET program of the EnVision instrument was used to read the plate, and the fluorescence value of each well was detected at 665 nm/615 nm.
(§2) Calculation was performed on the raw data (665 nm/615 nm reading ratio) according to the following formula to obtain the inhibition rate. Inhibition rate %=[(mean value in positive control well−value in sample well)/(mean value in positive control well−mean value in negative control well)]×100, wherein the positive control well was a reaction well without a compound […], and the negative control well was a reaction wells without an enzyme.
(§3) Log(inhibitor) vs. response−Variable slope (four parameters) in GraphPad Prism 6 was used for fitting equation analysis of the compound concentration and the corresponding inhibition rate, and the curve was fitted to obtain the IC50 value of the compound.
(§4) The fitting calculation equation was Y=Bottom+(Top−Bottom)/(1+10^((Log IC50−X)*HillSlope)).

TNF-α in U937 cells = assay: Inhibition of the expression level of TNF-α in LPS-stimulated U937 cells (ELISA); type: cell-based; conditions: Homo sapiens, U-937; PMA-differentiated U937, 10 ng/ml LPS 4 hours; read-out: U937 cell activity test TNF-α IC50
Procedure: U937 cells were treated with 20 ng/ml PMA for differentiation overnight, and after replacement with a fresh culture medium, the U937 cells were rested overnight. After differentiation, the U937 cells were digested and counted, and 50,000 cells per well were seeded in a 96-well plate until the cells adhered to the wall. A compound concentration gradient was prepared, the cells were pretreated with the compound for 1 hour (the highest final concentration of the compound was 1 μM, diluted in 3-fold concentration gradient), and 10 ng/ml LPS (Lipopolysaccharides from Escherichia coli O111:B4) was added for stimulation for 4 hours. Thereafter, the culture supernatant was collected by centrifugation and used for subsequent ELISA to detect the concentration of TNF-α in the supernatant. The concentration of TNF-α was detected according to the standard steps provided by the ELISA kit manufacturer.
A standard curve was plotted by a linear regression method from a TNF-α standard, and the concentration of TNF-α in a sample was derived by conversion according to the standard curve.
(§5) Calculation of inhibition rate: Inhibition rate %=[(mean value of TNF-α concentration in positive control well−mean value of TNF-α concentration in sample well)/(mean value of TNF-α concentration in positive control well−mean value of TNF-α concentration in negative control well)]×100%, wherein the positive control well was a well without a compound (DMSO-treated well), and the negative control well was a culture medium well.
as §3, with “Dose response curve fitting: Log(inhibitor)” for “Log(inhibitor)”, “compound. The fitting calculation equation was Y=Bottom+(Top−Bottom)/(1+10^((Log IC50−X)*HillSlope)).” for “compound.”

p-Hsp27 in U937 cells = assay: Inhibition of p-Hsp27 in LPS-stimulated U937 cells (ELISA); type: cell-based; conditions: Homo sapiens, U-937; PMA-differentiated U937, 10 ng/ml LPS 0.5 hours; read-out: U937 cell activity test p-HSP27 IC50
Procedure: U937 cells were treated with 20 ng/ml PMA for differentiation overnight, and after replacement with a fresh culture medium, the U937 cells were rested overnight. After differentiation, the U937 cell were digested and counted, and 25,000 cells per well were seeded in a 96-well plate until the cells adhered to the wall. A compound concentration gradient was prepared, the cells were pretreated with the compound for 1 hour (the highest final concentration of the compound was 1 μM, diluted in 3-fold concentration gradient), and 10 ng/ml LPS (Lipopolysaccharides from Escherichia coli O111:B4) was added for stimulation for 0.5 hours. After the cells were washed with PBS, the cells were lysed with a lysis solution. p-Hsp27 in the cell lysate was detected by using Phospho-HSP27 (S78/S82) DuoSet IC ELISA kit. For specific steps, reference could be made to the standard steps provided by the kit manufacturer.
as §5, with “of p-Hsp27” for “of”, “of p-Hsp27” for “of TNF-α concentration”, “a well without LPS stimulation.” for “a culture medium well.”
Dose response curve fitting: Log(inhibitor) vs. response−Variable slope (four parameters) in GraphPad Prism 6 was used for fitting equation analysis of the compound concentration and the corresponding inhibition rate, and the curve was fitted to obtain the IC50 value of the compound.
as §4

[1] = molecular target: T2, p38a (Active p38 alpha Protein) (Homo sapiens, UniProt Q16539); assay: Inhibition of p38 enzyme activity (TR-FRET, ULight-MBP); type: biochemical; conditions: 3 nM p38a, 50 μM ATP
T2 construct: purchased R & D systems 5477-KS-010
T2 sequence (Q16539 whole entry): as the sequence (Q16539 whole entry) above
Procedure: as §1, with “Experimental method for determining the p38 enzyme activity: 3 nM p38a (Active p38 alpha Protein) and compounds diluted in a certain concentration gradient were incubated in 1× enzyme reaction buffer (50 mM HEPES pH 7.5, 1 mM EGTA, 10 mM MgCl2, 2 mM DTT, 0.01% Tween-20) for 1 hour. 50” for “50”, “ULight-MBP” for “ULight-CREBtide”, “50” for “25”, “(ATP 10 mM” for “(ATP”, “Europium-anti-P-MBP)” for “Europium-anti-phospho-CREB)”
as §2, §3, §4

IC50 (p38α/MK2) | IC50 (TNF-α in U937 cells) | IC50 (p-Hsp27 in U937 cells) | Selectivity ratio (p38 IC50 / p38/MK2 IC50) (p38α/MK2) | IC50 [1] | Structure (SMILES)
0.42 nM | 0.33 nM | 0.28 nM |  |  | [2H]C([2H])(Oc1cc2n(c(=O)c1Cl)-c1cc(-n3ccc(C(C)(C)O)n3)ncc1CCCC2)c1ncc(F)cc1F [Example 2-1, (S)-11-chloro-10-((3,5-difluoropyridin-2-yl)methoxy-d2)-2-(3-(2-hydroxypropan-2-yl)-1H-pyrazol-1-yl)-5,6,7,8-tetrahydro-12H-dipyrido[1,2-a:3′,4′-g]azol-12-one]
0.49 nM | 0.85 nM | 0.28 nM |  |  | [2H]C([2H])(Oc1cc2n(c(=O)c1Cl)-c1cc(-c3ccnc(C(C)(C)O)n3)ncc1/C=C\CC2)c1ncc(F)cc1F [Example 16-1, (S,Z)-11-chloro-10-((3,5-difluoropyridin-2-yl)methoxy-d2)-2-(2-(2-hydroxypropan-2-yl)pyrimidin-4-yl)-7,8-dihydro-12H-dipyrido[1,2-a:3′,4′-g]azocin-12-one]
0.12 nM |  |  |  |  | [2H]C([2H])(Oc1cc2n(c(=O)c1Cl)-c1cc(-n3cccc(C(C)(C)O)c3=O)ncc1/C=C\CC2)c1ncc(F)cc1F [Example 19-1, (S,Z)-11-chloro-10-((3,5-difluoropyridin-2-yl)methoxy-d2)-2-(3-(2-hydroxypropan-2-yl)-2-carbonylpyridin-1(2H)-yl)-7,8-dihydro-12H-dipyrido[1,2-a:3′,4′-g]azocin-12-one]
0.12 nM |  |  |  |  | [2H]C([2H])(Oc1cc2n(c(=O)c1Cl)-c1cc(-n3cc(F)c(C(C)(C)NC(C)=O)n3)ncc1/C=C\CC2)c1ncc(F)cc1F [Example 18-1, (S,Z)—N-(2-(1-(11-chloro-10-((3,5-difluoropyridin-2-yl)methoxy-d2)-12-carbonyl-8,12-dihydro-7H-dipyrido[1,2-a:3′,4′-g]azocin-2-yl)-4-fluoro-1H-pyrazol-3-yl)propan-2-yl)acetamide]
 | 1.2 nM | 0.35 nM |  |  | [2H]C([2H])(Oc1cc2n(c(=O)c1Cl)-c1cc(-c3ccnc(C(C)(C)NC(C)=O)n3)ncc1CCCC2)c1ncc(F)cc1F [Example 4-1, (S)—N-(2-(4-(11-chloro-10-((3,5-difluoropyridin-2-yl)methoxy-d2)-12-carbonyl-6,7,8,12-tetrahydro-5H-dipyrido[1,2-a:3′,4′-g]azocin-2-yl)pyrimidin-2-yl)propan-2-yl)acetamide]
0.27 nM |  |  |  |  | [2H]C([2H])(Oc1cc2n(c(=O)c1Cl)-c1cc(-n3ccc(C(C)(C)O)n3)ncc1/C=C\CC2)c1ncc(F)cc1F [Example 17-1, (S,Z)-11-chloro-10-((3,5-difluoropyridin-2-yl)methoxy-d2)-2-(3-(2-hydroxypropan-2-yl)-1H-pyrazol-1-yl)-7,8-dihydro-12H-dipyrido[1,2-a:3′,4′-g]azocin-12-one]
0.18 nM | 0.18 nM | 0.15 nM |  |  | [2H]C([2H])(Oc1cc2n(c(=O)c1Cl)-c1cc(-n3cc(F)c(C(C)(C)NC(C)=O)n3)ncc1CCCC2)c1ncc(F)cc1F [Example 3-1, (S)—N-(2-(1-(11-chloro-10-((3,5-difluoropyridin-2-yl)methoxy-d2)-12-carbonyl-6,7,8,12-tetrahydro-5H-dipyrido[1,2-a:3′,4′-g]azocin-2-yl)-4-fluoro-1H-pyrazol-3-yl)propan-2-yl)acetamide]
0.13 nM | 0.1 nM | 0.13 nM |  |  | [2H]C([2H])(Oc1cc(C)n(-c2cc(-n3cccc(C(C)(C)O)c3=O)ncc2Cl)c(=O)c1Cl)c1ncc(F)cc1F [Example 10-1, (S)-3″,5′-dichloro-4″-((3,5-difluoropyridin-2-yl)methoxy-d2)-3-(2-hydroxypropan-2-yl)-6″-methyl-2H,2″H-[1,2′:4′,1″-terpyridine]-2,2″-dione]
0.05 nM | 0.12 nM | 0.13 nM | 102 | 5.1 nM | [2H]C([2H])(Oc1cc(C)n(-c2cc(-n3cccc(C(C)(C)O)c3=O)ncc2C)c(=O)c1Cl)c1ccc(F)cc1F [Example 14-1, (S)-3″-chloro-4″-((2,4-difluorophenyl)methoxy-d2)-3-(2-hydroxypropan-2-yl)-5′,6″-dimethyl-2H,2″H-[1,2′:4′,1″-terpyridine]-2,2″-dione]
0.25 nM | 0.19 nM | 0.22 nM |  |  | [2H]C([2H])(Oc1cc2n(c(=O)c1Cl)-c1c(cnc(-n3ccc(C(C)(C)O)n3)c1F)CCCC2)c1ncc(F)cc1F [Example 8-1, (R)-11-chloro-10-((3,5-difluoropyridin-2-yl)methoxy-d2)-1-fluoro-2-(3-(2-hydroxypropan-2-yl)-1H-pyrazol-1-yl)-5,6,7,8-tetrahydro-12H-dipyrido[1,2-a:3′,4′-g]azocin-12-one]
0.12 nM | 0.51 nM | 0.56 nM | 138 | 16.5 nM | [2H]C([2H])(Oc1cc(C)n(-c2cc(-n3cccc(C(C)(C)NC(C)=O)c3=O)ncc2C)c(=O)c1Cl)c1ccc(F)cc1F [Example 13-1, (S)—N-(2-(3″-chloro-4″-((2,4-difluorophenyl)methoxy-d2)-5′,6″-dimethyl-2,2″-dicarbonyl-2H,2″H-[1,2′:4′,1″-terpyridin]-3-yl)propan-2-yl)acetamide]
0.28 nM | 0.21 nM | 0.1 nM | 346 | 96.9 nM | [2H]C([2H])(Oc1cc(C)n(-c2cc(-n3cccc(C(C)(C)O)c3=O)ncc2C)c(=O)c1Cl)c1ncc(F)cc1F [Example 11-1, (S)-3″-chloro-4″-((3,5-difluoropyridin-2-yl)methoxy-d2)-3-(2-hydroxypropan-2-yl)-5′,6″-dimethyl-2H,2″H-[1,2′:4′,1″-terpyridine]-2,2″-dione]
0.79 nM |  |  | 666 | 526 nM | [2H]C([2H])(Oc1cc(C)n(-c2cc(-n3cccc(C(C)(C)NC(C)=O)c3=O)ncc2C)c(=O)c1Cl)c1ncc(F)cc1F [Example 5-1, (S)—N-(2-(3″-chloro-4″-((3,5-difluoropyridin-2-yl)methoxy-d2)-5′,6″-dimethyl-2,2″-dicarbonyl-2H,2″H-[1,2′:4′,1″-terpyridin]-3-yl)propan-2-yl)acetamide]
